In ChEMBL document CHEMBL5505983, “Design, synthesis, and molecular modeling studies of novel 2-quinolone-1,2,3-triazole-α-aminophosphonates hybrids as dual antiviral and antibacterial agents” (Eur J Med Chem, 2024):
In brackets after ≈: the same amount, converted by molar mass.

Legend:
Zika virus = assay: Antiviral activity against Zika virus infected in african green monkey Vero E6 cells assessed as inhibition of cytopathic effect by microscopy based analysis; format: functional, organism-based; settings: Vero C1008
Enterococcus faecalis [1] = assay: Bactericidal activity against Enterococcus faecalis; format: functional
Staphylococcus aureus [2] = assay: Bactericidal activity against Staphylococcus aureus CIP 54127; format: functional
Escherichia coli [3] = assay: Antibacterial activity against Escherichia coli CIP 53154 assessed as reduction in bacterial growth by micro-broth dilution method; format: functional
Enterococcus faecalis [4] = assay: Ratio of MBC to MIC for Enterococcus faecalis; format: functional
Enterovirus A71 = assay: Antiviral activity against human EV71 infected in human RD cells assessed as inhibition of cytopathic effect by microscopy based analysis; format: functional, organism-based; settings: Enterovirus A
Pseudomonas aeruginosa [5] = assay: Ratio of MBC to MIC for Pseudomonas aeruginosa CIP A22; format: functional
Yellow fever virus = assay: Antiviral activity against Yellow fever virus infected in human Huh-7 cells assessed as inhibition of cytopathic effect by microscopy based analysis; format: functional, organism-based
Staphylococcus aureus [6] = assay: Antibacterial activity against Staphylococcus aureus CIP 54127 assessed as reduction in bacterial growth by micro-broth dilution method; format: functional
Human rhinovirus sp. [7] = assay: Antiviral activity against Human rhinovirus B14 infected in human HeLa-RH cells assessed as inhibition of cytopathic effect by microscopy based analysis; format: functional, organism-based
[8] = Cytotoxicity against human HeLa-RH cells; format: toxicity, cell-based
Pseudomonas aeruginosa [9] = assay: Bactericidal activity against Pseudomonas aeruginosa CIP A22; format: functional
Staphylococcus aureus [10] = assay: Ratio of MBC to MIC for Staphylococcus aureus CIP 54127; format: functional
[11] = Cytotoxicity against African green monkey Vero E6 cells; format: toxicity, cell-based, Vero C1008; settings: chlorocebus sabaeus
Escherichia coli [12] = assay: Ratio of MBC to MIC for Escherichia coli CIP 53154; format: functional
Chikungunya virus = assay: Antiviral activity against CHIKV infected in African green monkey Vero A cells assessed as inhibition of cytopathic effect by microscopy based analysis; format: functional, organism-based
[13] = Cytotoxicity against African green monkey Vero A cells; format: toxicity, cell-based; settings: chlorocebus sabaeus
Pseudomonas aeruginosa [14] = assay: Antibacterial activity against Pseudomonas aeruginosa CIP A22 assessed as reduction in bacterial growth by micro-broth dilution method; format: functional
[15] = Cytotoxicity against human RD cells; format: toxicity, cell-based
[16] = Cytotoxicity against human Huh-7 cells; format: toxicity, cell-based
Human rhinovirus sp. [17] = assay: Antiviral activity against Human rhinovirus A2 infected in human HeLa-RH cells assessed as inhibition of cytopathic effect by microscopy based analysis; format: functional, organism-based
Escherichia coli [18] = assay: Bactericidal activity against Escherichia coli CIP 53154; format: functional
Enterococcus faecalis [19] = assay: Antibacterial activity against Enterococcus faecalis assessed as reduction in bacterial growth by micro-broth dilution method; format: functional
[20] = Selectivity index, ratio of CC50 for African green monkey Vero A cells to IC50 for CHIKV infected in African green monkey Vero A cells; format: toxicity; settings: read-out: Ratio CC50/IC50

CCOP(=O)(OCC)C(Nc1ccc(F)cc1)c1cc(Cn2cc(Cn3c(=O)cc(C)c4cc(F)ccc43)nn2)ccc1O (stereo not given)
IC50 (Zika virus): > 100 µM
MBC (Enterococcus faecalis [1]): 130 µM (≈ 81.1 µg/mL)
MBC (Staphylococcus aureus [2]): 500 µM (≈ 312 µg/mL)
MIC (Escherichia coli [3]): 1010 µM (≈ 630 µg/mL)
Ratio (Enterococcus faecalis [4]): 1
IC50 (Enterovirus A71): > 100 µM
Ratio (Pseudomonas aeruginosa [5]): 2
IC50 (Yellow fever virus): > 100 µM
MIC (Staphylococcus aureus [6]): 500 µM (≈ 312 µg/mL)
IC50 (Human rhinovirus sp. [7]): > 100 µM
CC50 [8]: > 100 µM
MBC (Pseudomonas aeruginosa [9]): 8020 µM (≈ 5000 µg/mL)
Ratio (Staphylococcus aureus [10]): 1
CC50 [11]: > 100 µM
Ratio (Escherichia coli [12]): 1
IC50 (Chikungunya virus): > 100 µM
CC50 [13]: > 100 µM
MIC (Pseudomonas aeruginosa [14]): 8020 µM (≈ 5000 µg/mL)
CC50 [15]: > 100 µM
CC50 [16]: 29.3 µM
IC50 (Human rhinovirus sp. [17]): > 3.7 µM
MBC (Escherichia coli [18]): 1010 µM (≈ 630 µg/mL)
MIC (Enterococcus faecalis [19]): 130 µM (≈ 81.1 µg/mL)

CCOP(=O)(OCC)C(Nc1ccccc1)c1cc(Cn2cc(Cn3c(=O)cc(C)c4ccccc43)nn2)ccc1O (stereo not given)
IC50 (Zika virus): > 100 µM
MBC (Enterococcus faecalis [1]): 270 µM (≈ 159 µg/mL)
MBC (Staphylococcus aureus [2]): 1070 µM (≈ 629 µg/mL)
MIC (Escherichia coli [3]): 270 µM (≈ 159 µg/mL)
Ratio (Enterococcus faecalis [4]): 1
IC50 (Enterovirus A71): > 100 µM
Ratio (Pseudomonas aeruginosa [5]): 1
IC50 (Yellow fever virus): > 100 µM
MIC (Staphylococcus aureus [6]): 530 µM (≈ 311 µg/mL)
IC50 (Human rhinovirus sp. [7]): > 100 µM
CC50 [8]: > 100 µM
MBC (Pseudomonas aeruginosa [9]): 2130 µM (≈ 1250 µg/mL)
Ratio (Staphylococcus aureus [10]): 2.02
CC50 [11]: > 100 µM
Ratio (Escherichia coli [12]): 1.96
IC50 (Chikungunya virus): 56.9 µM
CC50 [13]: > 100 µM
MIC (Pseudomonas aeruginosa [14]): 2130 µM (≈ 1250 µg/mL)
selectivity ratio [20]: > 1.76
CC50 [15]: > 100 µM
CC50 [16]: 51.1 µM
IC50 (Human rhinovirus sp. [17]): > 3.7 µM
MBC (Escherichia coli [18]): 530 µM (≈ 311 µg/mL)
MIC (Enterococcus faecalis [19]): 270 µM (≈ 159 µg/mL)

CCOP(=O)(OCC)C(Nc1ccccc1OC)c1cc(Cn2cc(Cn3c(=O)cc(C)c4ccccc43)nn2)ccc1O (stereo not given)
IC50 (Zika virus): > 100 µM
MBC (Enterococcus faecalis [1]): 2020 µM (≈ 1250 µg/mL)
MBC (Staphylococcus aureus [2]): 500 µM (≈ 309 µg/mL)
MIC (Escherichia coli [3]): 500 µM (≈ 309 µg/mL)
Ratio (Enterococcus faecalis [4]): 1
IC50 (Enterovirus A71): > 100 µM
Ratio (Pseudomonas aeruginosa [5]): 1
IC50 (Yellow fever virus): > 100 µM
MIC (Staphylococcus aureus [6]): 260 µM (≈ 161 µg/mL)
IC50 (Human rhinovirus sp. [7]): > 100 µM
CC50 [8]: > 33.3 µM
MBC (Pseudomonas aeruginosa [9]): 1020 µM (≈ 630 µg/mL)
Ratio (Staphylococcus aureus [10]): 1.92
CC50 [11]: > 33.3 µM
Ratio (Escherichia coli [12]): 2.04
IC50 (Chikungunya virus): > 100 µM
CC50 [13]: 77.2 µM
MIC (Pseudomonas aeruginosa [14]): 1020 µM (≈ 630 µg/mL)
CC50 [15]: > 100 µM
CC50 [16]: 51.8 µM
IC50 (Human rhinovirus sp. [17]): > 1.23 µM
MBC (Escherichia coli [18]): 1020 µM (≈ 630 µg/mL)
MIC (Enterococcus faecalis [19]): 2020 µM (≈ 1250 µg/mL)
